This is an account of results in ChEMBL document CHEMBL3045308, “Design and synthesis of novel pyrethriods containing eugenol moiety” (2012).

By mortality is commonly meant the percentage killed.

Each structure is given as a SMILES string.

Holding throughout (assay type): functional
The subject of test [1] is Culex quinquefasciatus. Put plainly: Insecticidal activity against Culex quinquefasciatus assessed as contact mortality at 0.025 mg/ml at 24 hr by standard immersion method relative to control.
Test [2] relates to Culex quinquefasciatus. Put plainly: Insecticidal activity against Culex quinquefasciatus assessed as contact mortality at 0.025 mg/ml at 12 hr by standard immersion method relative to control.
In test [3] the test system is Culex quinquefasciatus. Briefly: Insecticidal activity against Culex quinquefasciatus assessed as contact mortality at 0.025 mg/ml at 4 hr by standard immersion method relative to control.
The subject of test [4] is Culex quinquefasciatus. Put plainly: Insecticidal activity against Culex quinquefasciatus assessed as contact mortality at 0.025 mg/ml at 1 hr by standard immersion method relative to control.

For `C=CC(OC(=O)C(c1ccc(Cl)cc1)C(C)C)c1ccc(OC(C)=O)c(OC)c1` (centres undefined), the mortality at 25 µg/mL in the test on Culex quinquefasciatus [1] turned out to be 85%; in the test with Culex quinquefasciatus [2], 47%; in the test with Culex quinquefasciatus [3] it was 25%; in the test with Culex quinquefasciatus [4], 14%.

Take `C=CC(OC(=O)C(c1ccc(Cl)cc1)C(C)C)c1ccc(OCC)c(OC)c1` (centres undefined): the mortality at 25 µg/mL with Culex quinquefasciatus [1] worked out at 96%; with Culex quinquefasciatus [2], 42%; with Culex quinquefasciatus [3], 23%; in the test with Culex quinquefasciatus [4], 10%.

As for `C=CC(OC(=O)C1C(C=C(C)C)C1(C)C)c1ccc(OC(C)=O)c(OC)c1` (centres undefined), the mortality at 25 µg/mL with Culex quinquefasciatus [1] was 88%; in the test on Culex quinquefasciatus [2] it was 34%; with Culex quinquefasciatus [3], 25%; in the test on Culex quinquefasciatus [4] it was 10%.

As for `C=CC(OC(=O)C1C(C=C(C)C)C1(C)C)c1ccc(OCC)c(OC)c1` (centres undefined), the mortality at 25 µg/mL was 97% in the test with Culex quinquefasciatus [1], 40% in the test with Culex quinquefasciatus [2], 22% in the test with Culex quinquefasciatus [3] and 15% in the test on Culex quinquefasciatus [4].

With `C=CCC1=C(C)C(OC(=O)C2C(C=C(C)C)C2(C)C)CC1=O` (centres undefined) [Allethrin], the mortality at 25 µg/mL in the test with Culex quinquefasciatus [1] is 85%; in the test on Culex quinquefasciatus [2] it was 33%; in the test with Culex quinquefasciatus [3], 20%; with Culex quinquefasciatus [4], 12%.

With `CC(C)C(C(=O)OC(C#N)c1cccc(Oc2ccccc2)c1)c1ccc(Cl)cc1` (centres undefined) [FENVALERATE], the mortality at 25 µg/mL in the test on Culex quinquefasciatus [1] was determined as 88%; with Culex quinquefasciatus [2] it was 40%; in the test on Culex quinquefasciatus [3], 18%; with Culex quinquefasciatus [4], 10%.
